Results published in article PMC11574045, “A cofactor-induced repressive type of transcription factor condensation can be induced by synthetic peptides to suppress tumorigenesis” (The EMBO Journal, 2024).

What follows are substances tested on HEK293FT cells transfected with TF library (assay: Screening of TF condensates based on fluorescent puncta). Details: Figure 1B numerical data; TF library screen, one value per transcriptional factor.
Assay type: cell-based
Experimental: TF plasmids were automatically added to black-walled 384-well plates at 80 ng per well to reach a final concentration of 1.6 μg/ml. Polyethylenimine (PEI, Sigma) was then added to the plasmid-loaded plates at 240 ng per well (4.8 μg/ml). Subsequently, HEK293FT cells were seeded into the plate at 2000 cells per well. After 60 h, cells were cultured in medium with or without glucose for 12 h, and then fixed with 4% paraformaldehyde (PFA) at room temperature for 30 min. After three washes with PBS, fixed cells were permeabilized with 0.05% Triton X-100 for 15 min. Thereafter, cells were blocked with 5% BSA for 1 h, and then incubated overnight with anti-Flag (Sigma F3165, 1:200) and anti-GAL4 (Abbkine ABP57232, 1:200) primary antibodies at 4 °C. The cells were then gently washed with PBS, followed by being incubated with Alexa Fluor Plus 488 goat anti-mouse IgG secondary antibody (Thermo A32723, 1:400) or Alexa Fluor Plus 488 goat anti-rabbit IgG secondary antibody (Thermo A32731, 1:400) for 1 h. The plates were kept at 4 °C in the dark before being analyzed using an Opera System (Perkin Elmer). Fifty random fields per well were scanned and analyzed using the Columbus Plus Image Data Storage and Analysis System (Perkin Elmer).
In the case of ZFP238, the “Z score of condensed fraction” value is reported as -0.7406.
HOXA3 was tested, and the “Z score of condensed fraction” value was -0.6169.
For ARNT2, the “Z score of condensed fraction” value was -0.9281.
In the case of EPAS1, the “Z score of condensed fraction” value is reported as -0.6882.
For HOXD12, the “Z score of condensed fraction” value was 0.1237.
With HOXB13 the “Z score of condensed fraction” value was -0.5432.
In the case of EGR3, the “Z score of condensed fraction” value is reported as 0.2174.
In the case of ELK4, the “Z score of condensed fraction” value is reported as 0.361.
ZNF556 was tested, and the “Z score of condensed fraction” value was -0.2629.
NFIA was tested, and the “Z score of condensed fraction” value was 0.5032.
For HMGN3, the “Z score of condensed fraction” value was 1.967.
With PITX3 the “Z score of condensed fraction” value was 1.221.
In the case of CREB1, the “Z score of condensed fraction” value is reported as -0.9562.
For ZNF230, the “Z score of condensed fraction” value was 0.8569.
With ZBTB14 the “Z score of condensed fraction” value was -0.8092.
NH1H1 was tested, and the “Z score of condensed fraction” value was -0.5104.
For ZNF548, the “Z score of condensed fraction” value was 1.7562.
With RAX2 the “Z score of condensed fraction” value was 0.03236.
In the case of ZBTB8A, the “Z score of condensed fraction” value is reported as 0.3848.
ZNF530 was tested, and the “Z score of condensed fraction” value was -0.1863.
ZNF517 was tested, and the “Z score of condensed fraction” value was -0.6071.
TAL1 was tested, and the “Z score of condensed fraction” value was 1.608.
With RERE the “Z score of condensed fraction” value was -0.9918.
For MAFG, the “Z score of condensed fraction” value was 0.65.
With NRBF2 the “Z score of condensed fraction” value was -0.07151.
ELF1 was tested, and the “Z score of condensed fraction” value was 3.027.
In the case of AP-2A, the “Z score of condensed fraction” value is reported as 0.4428.
For ANKRD1, the “Z score of condensed fraction” value was 1.047.
With SP7 the “Z score of condensed fraction” value was -0.6845.
For ZNF829, the “Z score of condensed fraction” value was 0.6314.
NKX3-2 was tested, and the “Z score of condensed fraction” value was 1.062.
ZNF136 was tested, and the “Z score of condensed fraction” value was -0.8979.
HOXD11 was tested, and the “Z score of condensed fraction” value was -0.6245.
With MIXL1 the “Z score of condensed fraction” value was -0.6564.
In the case of ZNF529, the “Z score of condensed fraction” value is reported as -0.8409.
In the case of ZNF77, the “Z score of condensed fraction” value is reported as -1.086.
For ZNF680, the “Z score of condensed fraction” value was -0.6442.
With VSX1 the “Z score of condensed fraction” value was 0.9653.
For WIZ, the “Z score of condensed fraction” value was -0.9233.
In the case of EED, the “Z score of condensed fraction” value is reported as -1.11.
For ZSCAN22, the “Z score of condensed fraction” value was -0.5621.
For PRDM2, the “Z score of condensed fraction” value was -1.186.
With ZNF34 the “Z score of condensed fraction” value was -0.5261.
With SP8 the “Z score of condensed fraction” value was -1.149.
For PAX2, the “Z score of condensed fraction” value was -1.114.
TFAP2D was tested, and the “Z score of condensed fraction” value was -0.6052.
In the case of SOX11, the “Z score of condensed fraction” value is reported as 1.034.
TADA1L was tested, and the “Z score of condensed fraction” value was -0.6293.
With ZNF587 the “Z score of condensed fraction” value was 0.9024.
For SOX21, the “Z score of condensed fraction” value was -0.645.
With LYL1 the “Z score of condensed fraction” value was -0.8803.
KLF7 was tested, and the “Z score of condensed fraction” value was 1.062.
For SSX1, the “Z score of condensed fraction” value was 0.2068.
For COPEB, the “Z score of condensed fraction” value was -0.3064.
PRDM1 was tested, and the “Z score of condensed fraction” value was -0.6129.
ZNF626 was tested, and the “Z score of condensed fraction” value was 2.964.
With SOX17 the “Z score of condensed fraction” value was 0.6231.
ZNF221 was tested, and the “Z score of condensed fraction” value was -0.687.
ZNF643 was tested, and the “Z score of condensed fraction” value was 2.053.
ZNF695 was tested, and the “Z score of condensed fraction” value was -0.08978.
In the case of NKX3-1, the “Z score of condensed fraction” value is reported as -0.7603.
With SP1 the “Z score of condensed fraction” value was -0.5886.
For PBRM1, the “Z score of condensed fraction” value was -1.101.
For HOXC5, the “Z score of condensed fraction” value was -0.4333.
In the case of VSX2, the “Z score of condensed fraction” value is reported as 2.883.
For HOXC9, the “Z score of condensed fraction” value was -0.7207.
For ZNF254, the “Z score of condensed fraction” value was 0.4246.
In the case of RHOA, the “Z score of condensed fraction” value is reported as 2.893.
In the case of NR2E1/TLX, the “Z score of condensed fraction” value is reported as -0.5566.
With MEOX1 the “Z score of condensed fraction” value was -0.5142.
For HOXA11, the “Z score of condensed fraction” value was -0.6499.
With PAX6 the “Z score of condensed fraction” value was -0.2168.
ZFP37 was tested, and the “Z score of condensed fraction” value was -0.4393.
For BHLHE22, the “Z score of condensed fraction” value was 1.286.
With ZNF345 the “Z score of condensed fraction” value was -1.14.
With PRRX1 the “Z score of condensed fraction” value was -0.08333.
HOXA5 was tested, and the “Z score of condensed fraction” value was -1.091.
With KLF9 the “Z score of condensed fraction” value was -0.8423.
ZNF679 was tested, and the “Z score of condensed fraction” value was -1.052.
PSMC3 was tested, and the “Z score of condensed fraction” value was 1.134.
With TAF11 the “Z score of condensed fraction” value was -0.1333.
KLF16 was tested, and the “Z score of condensed fraction” value was -0.8935.
For BIRC3, the “Z score of condensed fraction” value was -0.652.
For LHX8, the “Z score of condensed fraction” value was -0.6943.
For ZNF404, the “Z score of condensed fraction” value was -1.0199.
With DMRTB1 the “Z score of condensed fraction” value was 1.668.
